The values below come from publication PMC11308618, “Determinants of interactions of a novel next-generation gabapentinoid NVA1309 and mirogabalin with the Cavα2δ-1 subunit” (Molecular Brain, 2024).

Assay [1] deals with T1, Cavα2δ-1.
T1 construct: gene CACNA2D1; chemically synthesized peptide surrounding the K615 locus ([…]; peptide P3)
Put plainly: SPR (Biacore) on immobilized peptide. In kind it is binding, Oryctolagus cuniculus. In general terms: SPR reads the build-up and loss of mass on a sensor chip optically.

Assay [2] deals with T1, Cavα2δ-1. Nature of the assay: SPR (Biacore) on immobilized peptide; also […] lowers Cav2.[…] current in tsA201 cells, lost with R243A or K615A Cavα[…]δ-1. In kind it is binding, Oryctolagus cuniculus.

Consider `CCC1=C[C@@H]2[C@H](C1)C[C@]2(CN)Cc1nnn[nH]1` [NVA1309], for which binding on Cavα2δ-1 [1] was put at a Kd of 273 ± 101 µM.

For `CCC1=C[C@@H]2[C@H](C1)C[C@]2(CN)CC(=O)O` [mirogabalin], the affinity in the assay with Cavα2δ-1 [2], expressed as Kd, was 161 ± 60 µM.
